From patent US20220265606A1, “ANTICANCER AGENTS” (The Texas A&M University System, priority 2019, published 2022)
Read-outs that look alike come from different tables or passages of the source.

Legend:
[1] = molecular target: NR4A2 ligand binding domain (LBD) (Homo sapiens, UniProt P43354); test: Ligand-induced quenching of NR4A2 LBD tryptophan fluorescence
Description: Quenching of NR4A1 Tryptophan Fluorescence by Direct Ligand Binding. Tryptophan fluorescence spectra were obtained as described herein. Briefly, histidine-tagged ligand binding domain (LBD) of NR4A1 at a final concentration of 0.5 μmol/L in 1.0 mL of phosphate-buffered saline (PBS, pH 7.4) was used for fluorescence measurements. The protein was incubated for 3 min at 25 °C in a temperature-controlled (Quantum Northwest TC125) fluorescence spectrophotometer (Varian Cary Eclipse). […] Ligand only fluorescence intensity at each ligand concentration was used to correct the NR4A1 tryptophan fluorescence intensity as described in the above references.
Accordingly, ligand binding assay for NR4A1 and NR4A2 which measures ligand-induced quenching of tryptophan fluorescence by the ligand were developed to further characterize activity with respect to NR4A1 and NR4A2. A tryptophane residue is located in the ligand binding domain (LBD) of both receptors and the LBD of the receptor is used in the binding assay.

NR4A1 LBD = molecular target: T1, NR4A1 LBD (Homo sapiens, UniProt P22736); test: NR4A1/bisANS fluorescence binding
T1 construct: histidine tag
T1 sequence (P22736 360-595 limits assumed, species assumed): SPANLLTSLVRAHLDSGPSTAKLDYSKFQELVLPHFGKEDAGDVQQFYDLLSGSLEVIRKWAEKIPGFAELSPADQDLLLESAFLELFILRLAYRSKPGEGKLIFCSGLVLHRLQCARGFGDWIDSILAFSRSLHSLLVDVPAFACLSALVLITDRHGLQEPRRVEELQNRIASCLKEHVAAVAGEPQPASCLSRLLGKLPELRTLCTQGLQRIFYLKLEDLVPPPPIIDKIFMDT
Description: The binding affinity (Kd) and binding stoichiometry (Bmax) of NR4A1/bisANS were determined essentially as described in FEBS Journal, 2014, 281, 2266-2283. For NR4A1/bisANS the binding affinity (Kd) was determined to be […] and the binding stoichiometry (Bmax) was determined to be 0.80 mol bisANS/mol NR4A1. The ability of ligand to displace bisANS was analyzed essentially as described in FEBS Journal, 2014, 281, 2266-2283. Briefly, histidine-tagged NR4A1 LBD (final concentration=0.05 μmon PBS, pH 7.4) was incubated at 25° C. for 3 min in the presence of 5.0 μmol bisANS/L. The bisANS fluorescence spectrum was obtained utilizing a Varian Cary Eclipse fluorescence spectrophotometer with an excitation wavelength of 365 nm (excitation slit width=5 nm) and an emission wavelength range of 400-600 nm (emission slit width=5 nm). Ligand titration was accomplished as described above for direct ligand binding using a stock ligand concentration of 10 mmol ligand/L ethanol. Addition of ethanol only had no effect on NR4A1/bisANS fluorescence (data not shown). […] Ligand/bisANS fluorescence intensity at each ligand concentration was used to correct the NR4A1/bisANS/ligand fluorescence intensity as described in the above reference.

[2] = test system: vasoactive intestinal peptide (VIP) in pancreatic cancer cells; settings: initial (background) work; cited from earlier work
glioblastoma cells [3] = test: Measurement of apoptosis (Annexin V staining); assay type: cell-based, human; settings: 24 hr
Description: Measurement of Apoptosis (Annexin V Staining). Cancer cells were seeded at density of 1.5×10^5 per ml in 6 well plates and treated with either vehicle (DMSO) or compounds for 24 hr.
(§1) Glioblastoma cells were treated with different concentrations of 4-Cl (FIG. 6A), 3-CF3-4-Cl (FIG. 6B), and 2-OH-4-Br (FIG. 6C) and effects on induction of Annexin V were determined as outlined herein. Glioblastoma cells were treated with different concentrations of NR4A2 antagonists and whole cell lysates were analyzed for markers of apoptosis by western blots.

NR4A2 [4] = settings: Panc1 / pancreatic cancer cells
Description: (§2) Transactivation Assay. Cells (8×10^4) per well were plated on 12-well plates in DMEM/F-12 supplemented with 2.5% charcoal-stripped FBS and 0.22% sodium bicarbonate. After 24 h growth, various amounts of DNA [i.e., UASx5-Luc (400 ng), GAL4-Nurr1 (40 ng) and β-gal (40 ng)] were cotransfected into each well by Lipofectamine 2000 reagent (Invitrogen, Carlsbad, Calif.) according to the manufacturer's protocol. After 5-6 hr of transfection, cells were treated with plating media (as above) containing either solvent (DMSO) or the indicated concentration of compounds for 24 hr. Cells were then lysed using a freeze-thaw protocol and 30 μL of cell extract was used for luciferase and β-gal assays. LumiCount (Packard, Meriden, Conn.) was used to quantify luciferase and β-gal activities. Luciferase activity values were normalized against corresponding (3-gal activity values as well as protein concentrations determined by Lowry's Method.

[5] = test system: vasoactive intestinal peptide (VIP) gene expression in Panc1 cells; test: VIP gene expression by quantitative PCR in Panc1 cells
Description: (§3) The effects of bis-indole and quinoline derivatives on activation of the NR4A2 regulated genes vasoactive intestinal peptide (VIP) was investigated. […] Relative expression levels of VIP were determined by quantitative PCR analysis. Results are expressed as means±SD for at least six separate determinations for each treatment.

glioblastoma cells [6] = test: Western blot of apoptosis markers in whole cell lysates; assay type: cell-based, human
Description: Western Blot Analysis. 17008, 15037, 14104s, 14015s, 15049, U87-MG, A172, T98G, and CCF-STTG1 cells were seeded at density of 1.5×10^5 per ml in 6 well plates and treated with various concentration of compounds and whole cell proteins were extracted using RIPA lysis buffer containing 10 mM Tris-HCl (pH 7.4), 150 mM NaCl, 1 mM ethylenediaminetetraacetic acid (EDTA), 1% Triton X-100 (w/v), 0.5% sodium deoxycholate and 0.1% sodium dodecylsulphate (SDS) with protease and phosphatase inhibitor cocktail. Protein concentrations were measured using Lowry's method and equal amounts of protein were separated in 10% and 15% SDS-PAGE and transferred to a Polyvinylidene difluoride (PVDF) membrane. PVDF membranes were incubated overnight at 4° C. with primary antibodies in 5% skimmed milk and incubated for 2-3 hr with secondary antibodies conjugated with horseradish peroxidase (HRP). Membranes were then exposed to HRP-substrate and immune reacted proteins were detected with chemiluminescence reagent.
as §1

[7] = test system: vasoactive intestinal peptide (VIP) gene expression in Panc28 cells; test: VIP gene expression by quantitative PCR in Panc28 cells
Description: as §3

NR4A2 [8] = test system: NR4A2
Description: as §2

15037 cells = test: 3D tumor spheroid invasion assay; settings: 10 μM, vs DMSO
Description: Three-Dimensional (3D) Tumor Spheroid Invasion Assay. The cells were suspended in the complete medium (2×10^4 cells/ml). […] The plate was transferred to the incubator for 1 hr and 100 μl of the complete media containing 3 times the desired final concentration of compounds was supplemented and then incubated for 3-5 days followed by fixation in 4% formaldehyde. Spheroid invasion was determined by measuring the cross-sectional areas of the spheroid center and the rim of invaded cells using ImageJ.

dopaminergic neurons = settings: in vivo, previous studies; cited from earlier work
[9] = previous studies, cited from earlier work
[10] = test system: U87-MG cells as xenografts; test: Xenograft study; assay type: in vivo, athymic nu/nu mice
Description: Xenograft Study. Female athymic nu/nu mice (4-6 weeks old) were purchased from Harlan Laboratories (Houston, TX). U87-MG cells (1×10^6) were harvested in 100 μl of DMEM and suspended in ice-cold Matrigel (1:1 ratio) and s.c. injected to either side of the flank area of the mice. After one week of tumor cell inoculation, mice were divided into two groups of 5 animals each. The first group received 100 μL of vehicle (corn oil), and second group of animals received an injection of 30 mg/kg/day of C-DIM 12 in 100 μl volume of corn oil by i.p. for three weeks. All mice were weighed once a week over the course of treatment to monitor changes in body weight. Tumor volumes could not be determined over the period of treatment because xenografted tumors were relatively deep. After three weeks of treatment, mice were sacrificed and tumor weights were determined.

NR4A2 ligand binding domain (LBD), sequence (P43354 360-595 limits assumed, species assumed): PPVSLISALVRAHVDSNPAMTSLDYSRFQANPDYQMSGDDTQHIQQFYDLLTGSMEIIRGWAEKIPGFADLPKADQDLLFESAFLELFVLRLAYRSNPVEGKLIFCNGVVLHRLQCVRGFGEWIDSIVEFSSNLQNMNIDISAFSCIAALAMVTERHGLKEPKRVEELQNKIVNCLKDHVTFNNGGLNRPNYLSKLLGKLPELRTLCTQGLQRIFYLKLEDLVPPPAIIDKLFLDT

Row | Compound | Binding to NR4A2 (quenching of LBD-Trp), in words [1] | Annexin V staining (glioblastoma cells [3]) | NR4A2-dependent transactivation (NR4A2 [4]) | Cleavage of caspase 7, 8 and PARP (glioblastoma cells [6]) | other results
1 | Clc1cccc(C(c2c[nH]c3ccccc23)c2c[nH]c3ccccc23)c1 [CDIM-3-Cl] | gave similar results |  |  |  | 
2 | O=S(=O)(O)c1cccc2c(-c3ccc(Nc4ccccc4)c4c(S(=O)(=O)O)cccc34)ccc(Nc3ccccc3)c12 [bisANS] |  |  |  |  | NR4A1/bisANS binding stoichiometry (Bmax) (NR4A1 LBD): 0.80 mol bisANS/mol NR4A1
3 | Brc1ccc(C(c2c[nH]c3ccccc23)c2c[nH]c3ccccc23)cc1 [CDIM-4-Br, 1-bis(3′indolyl)-1-(p-bromophenyl)methane] |  |  |  |  | Induction of VIP in pancreatic cancer cells [2]: induced vasoactive intestinal peptide (VIP)
4 | Oc1cc(Br)ccc1C(c1c[nH]c2ccccc12)c1c[nH]c2ccccc12 [Ligand 2-OH-4-Br] |  | induced Annexin V staining | induced NR4A2-dependent transactivation | cleaved caspase 7, 8 and PARP cleavage | Induction of VIP expression ([5]; bis-indole analogs 5, 10 and 15 μM, CQ 100, 150 and 200 μM, AQ 50, 75 and 100 μM): ≤ 330 fold
5 | Clc1ccccc1C(c1c[nH]c2ccccc12)c1c[nH]c2ccccc12 [CDIM-2-Cl] | gave similar results |  |  |  | 
6 | FC(F)(F)c1cc(C(c2c[nH]c3ccccc23)c2c[nH]c3ccccc23)ccc1Cl [Ligand 3-CF3-4-Cl] |  | induced Annexin V staining | induced NR4A2-dependent transactivation | cleaved caspase 7, 8 and PARP cleavage | 
7 | Cn1cc(C(c2ccc(O)cc2)c2cn(C)c3ccccc23)c2ccccc21 [N—Me-4-OH] |  |  | induced NR4A2-dependent transactivation |  | Induction of VIP, in words [7]: more potent inducer of VIP in Panc1 and Panc28 cells than either CQ or AQ; Induction of VIP, in words [5]: more potent inducer of VIP in Panc1 and Panc28 cells than either CQ or AQ
8 | Clc1ccc(C(c2c[nH]c3ccccc23)c2c[nH]c3ccccc23)cc1 [CDIM-4-Cl] | do not quench the LBD-Trp | induced Annexin V staining | activated NR4A2-dependent transactivation | cleaved caspase 7, 8 and PARP cleavage | NR4A2-dependent transactivation in GBM cells (FIGS. 4A-4C) (NR4A2 [8]): inhibited NR4A2-dependent transactivation; Induction of VIP in pancreatic cancer cells [2]: induced vasoactive intestinal peptide (VIP); Tumor spheroid invasion (15037 cells): inhibited tumor spheroid invasion; MPTP-induced loss of dopaminergic neurons (dopaminergic neurons): inhibited; Crossing of the blood-brain barrier [9]: cross the blood-brain barrier; Crossing of the blood-brain barrier ([9]; listed as DIM-C-pPhCl): crosses the blood-brain barrier and accumulates in the brain; Tumor weight ([10]; 30 mg/kg/day i.p. for three weeks, athymic nude mice bearing U87-MG xenograft): significantly decreased tumor weight; Cleaved caspase 8 in tumors ([10]; 30 mg/kg/day, western blot of tumor lysates vs vehicle controls): significant upregulation of cleaved caspase 8
